The values that follow come from patent publication US7037656B2, “Methods and compositions for identifying ligands for nuclear receptors” (priority 2000, dated 2006).

What all share (test): Yeast 6x EcRE-lacZ β-galactosidase transactivation assay
Experiment [1] has as its target T1, Dm ΔN EcR +Cf ΔA/B USP + GRIP1 (Drosophila melanogaster, UniProt P34021).
T1 construct: ubiquitin (human, 76 aa) (N, cleaved yes); expressed in transfected cells
The format is cell-based, Drosophila melanogaster; Choristoneura fumiferana. The conditions noted are these: RH 5992 10 μM, 4 hours, DMSO control 0.235. The procedure:
(§1) Briefly, yeast cells are cultured in 5 mL of YPD liquid medium overnight at 30° C. The cell culture was diluted 1:20 in YPD media and further grown until cell density reached an O.D of 0.6. at OD600. The cells were pelleted by centrifugation and washed with 10 mL of TE+0.1M lithium acetate. Cells are then resuspended in 10 mL TE+0.1M lithium acetate and incubated at 30° C. for 1 hour. Cells are collected and resuspended in 0.5 mL of TE+ 0.1M lithium acetate. Aliquots of cells (50 μL), were incubated for 15 minutes at 30° C. with 1–2 μg plasmid DNA in the presence of 5 μg of denatured salmon sperm DNA as DNA carrier. In the case of co-transformation, the indicated plasmids were added simultaneously. 50% polyethyleneglycol of molecular weight 4000, diluted in TE, was added to a final concentration of 35%. […]
(§2) Using the transformation method set forth above, yeast were co-transformed with a reporter gene as shown in FIG. 2 and the expression vector encoding the full-length D. melanogaster ecdysone receptor, DmEcR (FIG. 3A) in the presence or absence of the Dm EcR heterodimer partner, DmUSP (FIG. 4A). […] As the N-terminal portion of the Dm EcR receptor is reported to play a role in ligand independent transactivation, an expression vector containing an N-terminal deletion in the EcR was constructed (see FIG. 3B) and assessed in the β-galactosidase assays described above. […]

Experiment [2] has as its target T2, Dm ΔN EcR + Cf USP + GRIP1 (Drosophila melanogaster, UniProt P34021).
T2 construct: ubiquitin (human, 76 aa) (N, cleaved yes); expressed in transfected cells
The format is cell-based, Drosophila melanogaster; Choristoneura fumiferana. Particulars: RH 5992 10 μM, 4 hours, DMSO control 1.149. The procedure:
as §1, §2

Experiment [3] concerns the target T3, Dm ΔN EcR + Dm ΔA/B USP + GRIP1 (Drosophila melanogaster, UniProt P34021).
T3 construct: ubiquitin (human, 76 aa) (N, cleaved yes); expressed in transfected cells
Type of experiment: cell-based. The conditions noted are these: RH 5992 10 μM, 4 hours, DMSO control 0.340. The procedure: (§3) Briefly, yeast cells are cultured in 5 mL of YPD liquid medium overnight at 30° C. The cell culture was diluted 1:20 in YPD media and further grown until cell density reached an O.D of 0.6. at OD600. The cells were pelleted by centrifugation and washed with 10 mL of TE+0.1M lithium acetate. Cells are then resuspended in 10 mL TE+0.1M lithium acetate and incubated at 30° C. for 1 hour. Cells are collected and resuspended in 0.5 mL of TE+ 0.1M lithium acetate. Aliquots of cells (50 μL), were incubated for 15 minutes at 30° C. with 1–2 μg plasmid DNA in the presence of 5 μg of denatured salmon sperm DNA as DNA carrier. In the case of co-transformation, the indicated plasmids were added simultaneously. 50% polyethyleneglycol of molecular weight 4000, diluted in TE, was added to a final concentration of 35%. DMSO was added to the transformation solution simultaneously to a final concentration 3%. The samples were mixed well by vortexing and incubated for an additional 30 minutes at 30° C. The cell mixture is then heated for 15 minutes at 42° C. Cells were then collected and plated onto appropriate yeast selective media. Transformants of 4 plasmids are selected on the complete media without tryptophan, uracil, leucine and histidine.
(§4) The yeast cells grown overnight in selective liquid media at 30° C. were diluted in prewarmed liquid selective media to 0.1 at OD600 (ODculture). 100 μl of the cell culture was spiked to each well of a.96-well microtiter plate. Ligand (2 μl diluted in DMSO) was added to each well giving a final concentration of DMSO of 2%. As a control, 2 μl of DMSO were also added to additional test wells. The final concentration of the tested compounds in the media is 10 μM. The cells were incubated in the presence of ligand in a shaker at 30° C. After 4 hours of incubation, 100 μl of 2× “Z” Sarcosine-ONPG buffer (120 mM Na2HPO4, 80 mM NaH2PO4, 20 mM KCl, 2 mM MgSO4, 100 mM beta-mercaptoethanol (Sigma), pH 7.0, 0.4% lauroyl sarcosine (Sigma), 4 mg/mL ONPG (Diagnostic Chemicals limited) was added to each well and the plate was further incubated at 37° C. The 2× “Z” Sarcosine-ONPG buffer is freshly prepared or stored at −20° C. prior to use. After incubation at 37° C. for 1 hour. The reaction was stopped by adding 100 μL of quenching solution 0.5 M Na2CO3 and OD405 (ODreaction) and beta-galactosidase activity was measured in a micro plate reader (Biotek) at a wave length of 405–450 nanometers. The effect of copper on enhancement of the transactivation response mediated by the ligands tested was studied by adding CuSO4 to the media to a final concentration of 10 μM.
(§5) Using the transformation method set forth above, yeast were co-transformed with a reporter gene as shown in FIG. 2 and the expression vector encoding the full-length D. melanogaster ecdysone receptor, DmEcR (FIG. 3A) in the presence or absence of the Dm EcR heterodimer partner, DmUSP (FIG. 4A). Transformed cells were incubated with DMSO alone as a control or with a proprietary ecdysone receptor ligand (Rohm & Haas compound RH5992—tebufenozide) at final concentration 10 μM for 4 hours. The samples were then assayed for β-galactosidase activity as described above. […] As the N-terminal portion of the Dm EcR receptor is reported to play a role in ligand independent transactivation, an expression vector containing an N-terminal deletion in the EcR was constructed (see FIG. 3B) and assessed in the β-galactosidase assays described above. […] Restoration of ligand dependent transactivation was observed only when the DmΔN EcR, DmUSP and co-activator GRIP1 were coexpressed. See Table I. The data obtained indicate that the efficiency of ligand-dependent transactivation of the ecdysone receptor requires both heterodimer formation between EcR and USP, and proper interaction with co-activator GRIP1. […]

The target of another experiment is T4, Dm EcR-B1 (Drosophila melanogaster, UniProt P34021).
T4 construct: ubiquitin (human, 76 aa) (N, cleaved yes); expressed in transfected cells
T4 sequence (P34021 whole entry): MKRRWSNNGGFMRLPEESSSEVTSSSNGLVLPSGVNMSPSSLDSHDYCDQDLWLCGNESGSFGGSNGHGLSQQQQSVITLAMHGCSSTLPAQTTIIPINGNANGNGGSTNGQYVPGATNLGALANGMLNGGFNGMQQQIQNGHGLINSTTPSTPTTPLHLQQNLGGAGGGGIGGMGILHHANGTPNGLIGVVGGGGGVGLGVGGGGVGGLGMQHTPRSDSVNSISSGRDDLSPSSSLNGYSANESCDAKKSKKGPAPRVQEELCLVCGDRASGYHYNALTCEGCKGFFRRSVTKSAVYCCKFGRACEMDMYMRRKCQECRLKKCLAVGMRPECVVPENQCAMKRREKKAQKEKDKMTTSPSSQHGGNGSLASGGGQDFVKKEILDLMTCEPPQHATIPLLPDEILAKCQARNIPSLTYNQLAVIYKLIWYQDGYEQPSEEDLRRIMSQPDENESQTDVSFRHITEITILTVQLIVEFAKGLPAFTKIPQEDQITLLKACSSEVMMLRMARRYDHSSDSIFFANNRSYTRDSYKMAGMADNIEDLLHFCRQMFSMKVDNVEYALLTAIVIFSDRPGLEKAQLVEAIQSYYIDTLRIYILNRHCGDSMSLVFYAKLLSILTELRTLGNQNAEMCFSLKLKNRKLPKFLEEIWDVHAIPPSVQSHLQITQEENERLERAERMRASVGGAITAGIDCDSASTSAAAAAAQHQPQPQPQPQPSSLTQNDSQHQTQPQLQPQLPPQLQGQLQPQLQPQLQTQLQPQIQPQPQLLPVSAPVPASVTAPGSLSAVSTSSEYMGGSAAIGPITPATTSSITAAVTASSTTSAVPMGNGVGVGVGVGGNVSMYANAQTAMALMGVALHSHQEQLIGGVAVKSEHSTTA
The format is cell-based. Particulars: RH 5992 10 μM, 4 hours, DMSO control 1.090. On the procedure: as §3, §4, §5

The target in a further experiment is T5, Dm ΔN EcR + DmUSP (Drosophila melanogaster, UniProt P34021).
T5 construct: ubiquitin (human, 76 aa) (N, cleaved yes); expressed in transfected cells
T5 sequence (P34021 221-878 limits assumed, stated change not applied): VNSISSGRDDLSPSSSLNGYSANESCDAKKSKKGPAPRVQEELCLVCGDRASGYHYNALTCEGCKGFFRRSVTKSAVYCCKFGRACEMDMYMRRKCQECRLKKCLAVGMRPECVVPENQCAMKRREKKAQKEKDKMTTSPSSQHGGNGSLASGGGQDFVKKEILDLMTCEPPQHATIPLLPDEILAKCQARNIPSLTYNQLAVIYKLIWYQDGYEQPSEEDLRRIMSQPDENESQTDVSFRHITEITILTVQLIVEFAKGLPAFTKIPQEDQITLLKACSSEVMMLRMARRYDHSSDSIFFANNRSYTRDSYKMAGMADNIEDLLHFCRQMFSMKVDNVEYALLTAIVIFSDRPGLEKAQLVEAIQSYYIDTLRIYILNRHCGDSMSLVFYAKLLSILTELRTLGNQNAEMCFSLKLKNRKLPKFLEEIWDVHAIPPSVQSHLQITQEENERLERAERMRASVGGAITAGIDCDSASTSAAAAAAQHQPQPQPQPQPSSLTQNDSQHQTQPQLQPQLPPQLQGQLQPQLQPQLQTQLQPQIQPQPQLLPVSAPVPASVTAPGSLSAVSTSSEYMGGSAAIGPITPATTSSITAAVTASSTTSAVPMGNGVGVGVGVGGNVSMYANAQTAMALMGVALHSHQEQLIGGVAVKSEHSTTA
T5 sequence (P20153 whole entry partner): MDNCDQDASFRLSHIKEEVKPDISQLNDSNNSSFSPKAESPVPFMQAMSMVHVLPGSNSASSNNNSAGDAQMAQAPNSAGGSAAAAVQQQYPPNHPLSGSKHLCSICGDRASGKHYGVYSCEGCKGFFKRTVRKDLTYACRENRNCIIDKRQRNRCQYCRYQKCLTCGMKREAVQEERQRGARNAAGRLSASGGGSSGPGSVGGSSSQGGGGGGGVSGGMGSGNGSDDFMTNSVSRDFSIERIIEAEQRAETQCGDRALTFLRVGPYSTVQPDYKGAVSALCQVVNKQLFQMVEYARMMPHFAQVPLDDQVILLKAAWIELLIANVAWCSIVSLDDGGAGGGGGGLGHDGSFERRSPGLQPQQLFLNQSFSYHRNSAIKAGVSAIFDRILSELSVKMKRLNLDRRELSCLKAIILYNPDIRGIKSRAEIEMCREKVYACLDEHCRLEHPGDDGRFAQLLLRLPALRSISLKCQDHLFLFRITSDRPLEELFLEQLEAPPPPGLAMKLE
The format is cell-based. The conditions noted are these: 4 hours. On the procedure: as §3, §4, §5

The target in experiment [4] is T6, Dm ΔN EcR + DmUSP + GRIP1 (Drosophila melanogaster, UniProt P34021).
T6 construct: ubiquitin (human, 76 aa) (N, cleaved yes); expressed in transfected cells
T6 sequence (P34021 221-878 limits assumed, stated change not applied): as the sequence (P34021 221-878 limits assumed, stated change not applied) above
T6 sequence (P20153 whole entry partner): as the sequence (P20153 whole entry partner) above
T6 sequence (Q61026 322-1121 partner limits assumed): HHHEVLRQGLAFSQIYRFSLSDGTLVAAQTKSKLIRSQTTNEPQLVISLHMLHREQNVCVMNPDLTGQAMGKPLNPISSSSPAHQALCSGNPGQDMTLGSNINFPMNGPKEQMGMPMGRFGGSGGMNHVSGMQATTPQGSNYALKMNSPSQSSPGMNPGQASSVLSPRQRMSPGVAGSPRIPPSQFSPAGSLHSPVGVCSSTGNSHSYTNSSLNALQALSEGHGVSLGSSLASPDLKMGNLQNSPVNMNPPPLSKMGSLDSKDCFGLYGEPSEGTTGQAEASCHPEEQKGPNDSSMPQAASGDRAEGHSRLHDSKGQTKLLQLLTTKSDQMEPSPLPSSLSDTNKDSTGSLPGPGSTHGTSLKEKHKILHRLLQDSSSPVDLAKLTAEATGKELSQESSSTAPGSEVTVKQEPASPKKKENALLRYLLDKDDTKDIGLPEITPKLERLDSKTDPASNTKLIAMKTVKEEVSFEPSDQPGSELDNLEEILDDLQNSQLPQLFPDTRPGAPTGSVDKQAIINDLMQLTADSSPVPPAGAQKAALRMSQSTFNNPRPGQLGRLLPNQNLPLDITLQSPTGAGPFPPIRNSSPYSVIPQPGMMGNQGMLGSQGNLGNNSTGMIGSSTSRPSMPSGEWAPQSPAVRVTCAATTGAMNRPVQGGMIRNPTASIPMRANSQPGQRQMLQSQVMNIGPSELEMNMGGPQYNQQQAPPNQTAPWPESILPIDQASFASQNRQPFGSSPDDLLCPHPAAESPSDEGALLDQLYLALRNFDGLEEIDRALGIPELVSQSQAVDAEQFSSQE
The format is cell-based. The conditions noted are these: RH 5992 10 μM, 4 hours, DMSO control 0.424. On the procedure:
as §3, §4, §5

Another experiment concerns the target T7, Dm EcR + DmUSP (Drosophila melanogaster, UniProt P34021).
T7 construct: ubiquitin (human, 76 aa) (N, cleaved yes); expressed in transfected cells
Type of experiment: cell-based. The conditions noted are these: RH 5992 10 μM, 4 hours, DMSO control 2.091. On the procedure:
as §3, §4, §5

T1 sequence (P34021 221-878, stated change not applied): as the sequence (P34021 221-878 limits assumed, stated change not applied) above
T1 sequence (O76202 with tags, fused parts or gaps partner): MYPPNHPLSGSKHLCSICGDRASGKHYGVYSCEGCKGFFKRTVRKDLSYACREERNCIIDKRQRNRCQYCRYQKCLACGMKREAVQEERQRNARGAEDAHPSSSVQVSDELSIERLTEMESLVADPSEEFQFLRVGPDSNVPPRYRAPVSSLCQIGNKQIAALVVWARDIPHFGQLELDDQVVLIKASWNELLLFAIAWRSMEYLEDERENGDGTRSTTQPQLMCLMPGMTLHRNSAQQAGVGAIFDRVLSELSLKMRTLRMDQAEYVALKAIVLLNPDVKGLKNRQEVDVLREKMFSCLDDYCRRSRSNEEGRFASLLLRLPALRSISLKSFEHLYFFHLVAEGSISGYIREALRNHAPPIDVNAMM
T2 sequence (P34021 221-878 limits assumed, stated change not applied): as the sequence (P34021 221-878 limits assumed, stated change not applied) above
T2 sequence (O76202 whole entry partner): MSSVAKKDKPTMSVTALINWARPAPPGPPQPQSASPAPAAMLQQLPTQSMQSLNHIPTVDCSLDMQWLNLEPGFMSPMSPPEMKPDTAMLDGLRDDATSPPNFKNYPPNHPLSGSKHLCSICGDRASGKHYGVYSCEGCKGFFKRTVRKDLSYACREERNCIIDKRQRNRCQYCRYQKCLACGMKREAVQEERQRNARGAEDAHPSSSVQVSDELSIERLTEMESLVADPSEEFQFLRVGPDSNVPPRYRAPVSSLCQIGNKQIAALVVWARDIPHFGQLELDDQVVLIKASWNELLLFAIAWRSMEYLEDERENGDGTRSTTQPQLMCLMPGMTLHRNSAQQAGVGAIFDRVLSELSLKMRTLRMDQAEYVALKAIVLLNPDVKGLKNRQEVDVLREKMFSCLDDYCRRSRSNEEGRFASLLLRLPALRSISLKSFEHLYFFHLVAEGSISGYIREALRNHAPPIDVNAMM
T2 sequence (Q61026 322-1121 partner limits assumed): as the sequence (Q61026 322-1121 partner limits assumed) above
T3 sequence (P34021 221-878, stated change not applied): as the sequence (P34021 221-878 limits assumed, stated change not applied) above
T3 sequence (P20153 with tags, fused parts or gaps partner): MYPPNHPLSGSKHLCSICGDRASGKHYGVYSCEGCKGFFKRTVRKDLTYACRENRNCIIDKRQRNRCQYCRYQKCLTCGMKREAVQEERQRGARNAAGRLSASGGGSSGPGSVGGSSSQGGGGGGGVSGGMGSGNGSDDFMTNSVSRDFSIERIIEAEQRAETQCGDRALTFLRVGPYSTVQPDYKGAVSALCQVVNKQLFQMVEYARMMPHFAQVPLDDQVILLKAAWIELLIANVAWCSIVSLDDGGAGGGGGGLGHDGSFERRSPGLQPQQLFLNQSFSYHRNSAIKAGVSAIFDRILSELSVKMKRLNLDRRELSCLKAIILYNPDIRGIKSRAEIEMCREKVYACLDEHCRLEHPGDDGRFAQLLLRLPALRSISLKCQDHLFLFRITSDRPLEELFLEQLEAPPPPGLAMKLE
T7 sequence (P34021 whole entry): as the sequence (P34021 whole entry) above
T7 sequence (P20153 whole entry partner): as the sequence (P20153 whole entry partner) above

With `CCc1ccc(C(=O)NN(C(=O)c2cc(C)cc(C)c2)C(C)(C)C)cc1` [RH 5992, tebufenozide], the β-galactosidase activity came to 0.590 in experiment [1]; 1.409 in experiment [2]; 2.323 in experiment [3]; 1.200 at Dm EcR-B1; 0.182 at Dm ΔN EcR + DmUSP (RH 5992 10 μM, yeast, Dm ΔN EcR + DmUSP, DMSO control 0.152); 2.537 in experiment [4]. Further, the β-galactosidase activity on Dm EcR + DmUSP came to 1.953. At Dm ΔN EcR + DmUSP (10 μM, DmEcR with N-terminal deletion, DmUSP present or absent, no GRIP1), the “transactivation of the reporter gene (in words)” value is listed as “incapable of transactivating the reporter gene”.
